Test results from paper PMC8021118, “Shared recognition of citrullinated tenascin-C peptides by T and B cells in rheumatoid arthritis” (JCI Insight, 2021).
Where two headings read alike, the source gives them in different places. Where a SMILES comes first, the peptide text is derived from it. Where no end group is shown, it is not given here. [ ]: non-standard residue; d: D form. Cit = NC(=O)NCCC[C@H](N)C(=O)O

Key:
[1] = test system: CD4+ T cells in PBMC from HLA-DRB1*04:01+ subjects; assay: In vitro expansion of peptide-specific CD4+ T cells from PBMC and HLA class II tetramer staining; assay type: cell-based, human; details: for Responders (% in RA): RA subjects with positive in vitro response (>0.1% of CD4+ T cells tetramer+) of total tested, 10 μg/mL peptide, 14 days, n = 14, TNC44 and TNC59 n = 6; for Immunogenicity: Supplemental Table 1, ability to elicit an immune response in vitro (tetramer staining after expansion); for T cell responses in vitro (in words): noncitrullinated 15-mer versions
Description: TNC is a large protein (2110 amino acids in length) composed of an N-terminal assembly domain, 14.5 epidermal growth factor–like repeats (EGF-L), 8 constant fibronectin type III–like repeats (FNIII), and an additional 9 alternatively spliced FNIII elements, and a C-terminal fibrinogen-like globe (FBG) ([16]). Using a previously described algorithm ([9], [24]), we scanned the entire length of the TNC monomer and identified 64 arg-containing peptides with motifs that would predict to permit binding to HLA-DRB1*04:01 in either their noncitrullinated native form, citrullinated form, or both. Based on these predictions, we synthesized the citrullinated versions of these peptides and tested their ability to bind HLA-DRB1*04:01 and to elicit CD4^+ T cell expansion in vitro. Of the peptides synthesized, 8 cit-TNC peptides bound to HLA-DRB1*04:01 with moderate to high affinity (Table 1). Among these, cit-TNC17, cit-TNC22, cit-TNC45, cit-TNC50, and cit-TNC56 were determined to be the most immunogenic, based on their ability to drive epitope-specific T cell expansion, as measured by HLA class II tetramer (Tmr) staining of peripheral blood mononuclear cells (PBMC) from HLA-DRB1*04:01^+ subjects following 2 weeks of in vitro expansion (Table 1 and Supplemental Figure 1; supplemental material available online with this article; https://doi.org/10.1172/jci.insight.145217DS1).
Recombinant HLA-DRB1*04:01 protein was produced by the BRI Tetramer Core as previously described ([56]). Soluble HLA-DRB1*04:01 monomer was purified from insect cell culture supernatants and biotinylated at a sequence-specific site using biotin ligase (Avidity) prior to dialysis into phosphate storage buffer. The biotinylated monomer was loaded with 0.2 mg/mL of peptide by incubating at 37°C for 72 hours in the presence of 2.5 mg/mL n-octyl β-D-glucopyranoside and 1 mM Pefabloc SC (Sigma-Aldrich). Peptide-loaded monomers were conjugated into Tmrs using fluorescently labeled streptavidin (Invitrogen) for 6–18 hours at room temperature at a molar ratio of 8:1.
Cryopreserved PBMCs from RA and healthy subjects were cultured at 5 × 10^6 cells/well in a 48-well plate in RPMI-1640 + 10% HPS with 10 μg/mL of peptide. IL-2 (Novartis) was added at 325 IU/mL on day 6. On day 14, cells were stained for expression of Tmr-PE, CD25 APC (BD Biosciences), and CD4 FITC (BioLegend) (Supplemental Table 8) and then run on a FACSCanto. The data were analyzed by FlowJo software version 10.

[2] = biological target: HLA-DRB1*04:01 (Homo sapiens, UniProt P01903+P01911, A100K/A169T/F76Y/I96L/K127E/L162R/M171V/N62H/P40V/Q125Y/R42H/S133A/S149N/S66Y/V115G/V209L/W38E); assay: Peptide competition binding assay to HLA-DRB1*04:01; details: for Binding to HLA-DRB1*04:01 (in words): 15-mer T cell peptides, EC50 cutoff for measurable binding 50 μM
[3] = Supplemental Table 1, citrullinated (X) vs arginine (R) versions, cutoff in the peptide binding assay 50 μM

Compound: CSCC[C@H](NC(=O)[C@@H](N)CO)C(=O)N[C@@H](C)C(=O)N[C@@H](Cc1ccc(O)cc1)C(=O)N[C@@H](Cc1c[nH]cn1)C(=O)N[C@@H](CC(N)=O)C(=O)NCC(=O)N[C@@H](CCCNC(N)=O)C(=O)N[C@@H](CO)C(=O)N[C@@H](Cc1ccccc1)C(=O)N[C@@H](CO)C(=O)N[C@H](C(=O)N[C@@H](Cc1ccccc1)C(=O)N[C@@H](CC(=O)O)C(=O)N[C@@H](CCCCN)C(=O)O)[C@@H](C)O [TNC59] (H-SMAYHNG[Cit]SFSTFDK-OH)
- Responders (% in RA) [1]: 33%
- EC50 [2]: 25 µM

Compound: CC(C)C[C@H](NC(=O)[C@H](CCCNC(=N)N)NC(=O)[C@H](Cc1ccc(O)cc1)NC(=O)[C@H](CCCNC(N)=O)NC(=O)[C@H](CC(=O)O)NC(=O)[C@@H](N)Cc1ccccc1)C(=O)N[C@@H](CC(N)=O)C(=O)N[C@@H](Cc1ccc(O)cc1)C(=O)N[C@@H](CO)C(=O)N[C@@H](CC(C)C)C(=O)N1CCC[C@H]1C(=O)N[C@H](C(=O)NCC(=O)N[C@@H](CCC(N)=O)C(=O)N[C@@H](Cc1c[nH]c2ccccc12)C(=O)O)[C@@H](C)O [TNC-22XR] (H-FD[Cit]YRLNYSLPTGQW-OH)
- Immunogenicity [1]: Yes
- EC50 [2, 3]: 0.6 µM

Compound: CC(C)C[C@H](NC(=O)[C@H](CCCNC(N)=O)NC(=O)[C@H](Cc1ccc(O)cc1)NC(=O)[C@H](CCCNC(=N)N)NC(=O)[C@H](CC(=O)O)NC(=O)[C@@H](N)Cc1ccccc1)C(=O)N[C@@H](CC(N)=O)C(=O)N[C@@H](Cc1ccc(O)cc1)C(=O)N[C@@H](CO)C(=O)N[C@@H](CC(C)C)C(=O)N1CCC[C@H]1C(=O)N[C@H](C(=O)NCC(=O)N[C@@H](CCC(N)=O)C(=O)N[C@@H](Cc1c[nH]c2ccccc12)C(=O)O)[C@@H](C)O [TNC-22RX] (H-FDRY[Cit]LNYSLPTGQW-OH)
- Immunogenicity [1]: Yes
- EC50 [2, 3]: 0.9 µM

Compound: CC[C@H](C)[C@H](NC(=O)[C@H](CCC(=O)O)NC(=O)[C@H](C)NC(=O)[C@H](CCCNC(N)=O)NC(=O)[C@H](CC(C)C)NC(=O)[C@@H]1CCCN1C(=O)[C@H](CCCCN)NC(=O)[C@@H](N)[C@@H](C)O)C(=O)N[C@H](C(=O)N[C@H](C(=O)N[C@@H](CCC(=O)O)C(=O)N[C@@H](C)C(=O)N[C@@H](CCC(=O)O)C(=O)N1CCC[C@H]1C(=O)N[C@@H](CCC(=O)O)C(=O)O)[C@@H](C)O)C(C)C [TNC44] (H-TKPL[Cit]AEIVTEAEPE-OH)
- Responders (% in RA) [1]: 33%
- EC50 [2]: 33.3 µM

Compound: VESFRITYVPITGGT [TNC-50R]
- Immunogenicity [1]: Yes
- EC50 [2, 3]: 1 µM

Compound: CC[C@H](C)[C@H](NC(=O)[C@H](CC(C)C)NC(=O)[C@H](CO)NC(=O)[C@@H](N)C(C)C)C(=O)N[C@@H](CO)C(=O)N[C@@H](CCCNC(N)=O)C(=O)N[C@@H](CCCNC(N)=O)C(=O)NCC(=O)N[C@@H](CC(=O)O)C(=O)N[C@@H](CCSC)C(=O)N[C@@H](CO)C(=O)N[C@@H](CO)C(=O)N[C@@H](CC(N)=O)C(=O)N1CCC[C@H]1C(=O)N[C@@H](C)C(=O)O [TNC17] (H-VSLIS[Cit][Cit]GDMSSNPA-OH)
- EC50 [2]: 3.6 µM

Compound: PDGFRLSWTADEGVF [TNC-45R]
- Immunogenicity [1]: Yes
- EC50 [2, 3]: 5.7 µM

Compound: CQGQYELRVDLRDHGETAFC [arg-TNC56, Cys-flanked arginine TNC56 peptide used in ELISA]
- Binding to HLA-DRB1*04:01 (in words) [2]: did not

Compound: CPTAQVESFRITYVPITGGC [arg-TNC50, Cys-flanked arginine TNC50 peptide used in ELISA]
- T cell responses in vitro (in words) [1]: had the ability to elicit T cell responses in vitro
- Binding to HLA-DRB1*04:01 (in words) [2]: bound

Compound: CVSDATPDGFRLSWTADEGC [arg-TNC45, Cys-flanked arginine TNC45 peptide used in ELISA]
- T cell responses in vitro (in words) [1]: had the ability to elicit T cell responses in vitro
- Binding to HLA-DRB1*04:01 (in words) [2]: bound

Compound: CC[C@H](C)[C@H](NC(=O)[C@H](CC(C)C)NC(=O)[C@H](CO)NC(=O)[C@@H](N)C(C)C)C(=O)N[C@@H](CO)C(=O)N[C@@H](CCCNC(=N)N)C(=O)N[C@@H](CCCNC(N)=O)C(=O)NCC(=O)N[C@@H](CC(=O)O)C(=O)N[C@@H](CCSC)C(=O)N[C@@H](CO)C(=O)N[C@@H](CO)C(=O)N[C@@H](CC(N)=O)C(=O)N1CCC[C@H]1C(=O)N[C@@H](C)C(=O)O [TNC-17RX] (H-VSLISR[Cit]GDMSSNPA-OH)
- EC50 [2, 3]: 4.7 µM

Compound: FDRYRLNYSLPTGQW [TNC-22RR]
- Immunogenicity [1]: Yes
- EC50 [2, 3]: 1 µM

Compound: CEYEVSLISRRGDMSSNPAC [arg-TNC17, Cys-flanked arginine TNC17 peptide used in ELISA]
- Binding to HLA-DRB1*04:01 (in words) [2]: did not

Compound: H-QGQYELRVDLRDHGE-OH [TNC-56RR]
- EC50 [2, 3]: > 50 µM

Compound: CC(C)C[C@H](NC(=O)[C@H](CCC(=O)O)NC(=O)[C@H](Cc1ccc(O)cc1)NC(=O)[C@H](CCC(N)=O)NC(=O)CNC(=O)[C@@H](N)CCC(N)=O)C(=O)N[C@@H](CCCNC(N)=O)C(=O)N[C@H](C(=O)N[C@@H](CC(=O)O)C(=O)N[C@@H](CC(C)C)C(=O)N[C@@H](CCCNC(=N)N)C(=O)N[C@@H](CC(=O)O)C(=O)N[C@@H](Cc1c[nH]cn1)C(=O)NCC(=O)N[C@@H](CCC(=O)O)C(=O)O)C(C)C [TNC-56XR] (H-QGQYEL[Cit]VDLRDHGE-OH)
- EC50 [2, 3]: 8.7 µM

Compound: H-VSLISRRGDMSSNPA-OH [TNC-17RR]
- EC50 [2, 3]: > 50 µM

Compound: CC[C@H](C)[C@H](NC(=O)[C@H](CC(C)C)NC(=O)[C@H](CO)NC(=O)[C@@H](N)C(C)C)C(=O)N[C@@H](CO)C(=O)N[C@@H](CCCNC(N)=O)C(=O)N[C@@H](CCCNC(=N)N)C(=O)NCC(=O)N[C@@H](CC(=O)O)C(=O)N[C@@H](CCSC)C(=O)N[C@@H](CO)C(=O)N[C@@H](CO)C(=O)N[C@@H](CC(N)=O)C(=O)N1CCC[C@H]1C(=O)N[C@@H](C)C(=O)O [TNC-17XR] (H-VSLIS[Cit]RGDMSSNPA-OH)
- EC50 [2, 3]: > 50 µM

Compound: CC(C)C[C@H](NC(=O)[C@H](CCC(=O)O)NC(=O)[C@H](Cc1ccc(O)cc1)NC(=O)[C@H](CCC(N)=O)NC(=O)CNC(=O)[C@@H](N)CCC(N)=O)C(=O)N[C@@H](CCCNC(=N)N)C(=O)N[C@H](C(=O)N[C@@H](CC(=O)O)C(=O)N[C@@H](CC(C)C)C(=O)N[C@@H](CCCNC(N)=O)C(=O)N[C@@H](CC(=O)O)C(=O)N[C@@H](Cc1c[nH]cn1)C(=O)NCC(=O)N[C@@H](CCC(=O)O)C(=O)O)C(C)C [TNC-56RX] (H-QGQYELRVDL[Cit]DHGE-OH)
- EC50 [2, 3]: > 50 µM

Compound: CTPLAKFDRYRLNYSLPTGC [arg-TNC22, Cys-flanked arginine TNC22 peptide used in ELISA]
- T cell responses in vitro (in words) [1]: had the ability to elicit T cell responses in vitro
- Binding to HLA-DRB1*04:01 (in words) [2]: bound

Compound: CC[C@H](C)[C@H](NC(=O)[C@H](C)NC(=O)[C@@H]1CCCN1C(=O)[C@H](CCC(N)=O)NC(=O)[C@H](Cc1c[nH]c2ccccc12)NC(=O)[C@H](CCCNC(N)=O)NC(=O)[C@H](C)NC(=O)[C@@H](N)CC(C)C)C(=O)N[C@@H](C)C(=O)N[C@H](C(=O)N[C@H](C(=O)N[C@@H](CC(=O)O)C(=O)N[C@@H](CO)C(=O)N[C@@H](Cc1ccc(O)cc1)C(=O)N[C@H](C(=O)O)C(C)C)C(C)C)[C@@H](C)O [TNC52] (H-LA[Cit]WQPAIATVDSYV-OH)
- Responders (% in RA) [1]: 33%
- EC50 [2]: 28.8 µM

Compound: CC(C)C[C@H](NC(=O)[C@H](CCC(=O)O)NC(=O)[C@H](Cc1ccc(O)cc1)NC(=O)[C@H](CCC(N)=O)NC(=O)CNC(=O)[C@@H](N)CCC(N)=O)C(=O)N[C@@H](CCCNC(N)=O)C(=O)N[C@H](C(=O)N[C@@H](CC(=O)O)C(=O)N[C@@H](CC(C)C)C(=O)N[C@@H](CCCNC(N)=O)C(=O)N[C@@H](CC(=O)O)C(=O)N[C@@H](Cc1c[nH]cn1)C(=O)NCC(=O)N[C@@H](CCC(=O)O)C(=O)O)C(C)C [TNC56] (H-QGQYEL[Cit]VDL[Cit]DHGE-OH)
- EC50 [2]: 9 µM
